Literature values, collected in patent US20230355701A1, “CO[…] COMPOUNDS” (CAAMTECH, INC., priority 2019, published 2023).
Like-named read-outs stand apart in the source and are kept apart here.

Experiments:
hMOR = hMOR (Homo sapiens, UniProt P35372); conditions: for functional behaviour at hMOR: BRET functional assay
[1] = biological target: human kappa opioid receptor (hKOR) (Homo sapiens, UniProt P41145)
[2] = biological target: T1, human delta opioid receptor (hDOR) (Homo sapiens, UniProt P41143)
T1 sequence (P41143 whole entry): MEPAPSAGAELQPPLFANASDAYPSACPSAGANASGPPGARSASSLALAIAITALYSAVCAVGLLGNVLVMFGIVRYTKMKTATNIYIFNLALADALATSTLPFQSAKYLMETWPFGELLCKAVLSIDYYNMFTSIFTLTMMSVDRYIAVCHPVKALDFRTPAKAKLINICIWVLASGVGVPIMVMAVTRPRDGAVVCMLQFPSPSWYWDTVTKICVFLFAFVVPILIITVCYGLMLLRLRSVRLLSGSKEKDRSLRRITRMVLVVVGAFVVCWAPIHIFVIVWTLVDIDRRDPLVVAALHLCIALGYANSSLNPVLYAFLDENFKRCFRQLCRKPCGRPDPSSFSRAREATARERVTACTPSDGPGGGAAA

[3] = biological target: T1, human delta opioid receptor (hDOR); remark: listed apart in the source
[4] = mediated through agonist activity at hMOR
[5] = mice
[6] = rats
[7] = dogs, given intraperitoneally or orally
[8] = intracerebroventricular administration
[9] = given intraperitoneally or orally

human kappa opioid receptor (hKOR), sequence (P41145 whole entry): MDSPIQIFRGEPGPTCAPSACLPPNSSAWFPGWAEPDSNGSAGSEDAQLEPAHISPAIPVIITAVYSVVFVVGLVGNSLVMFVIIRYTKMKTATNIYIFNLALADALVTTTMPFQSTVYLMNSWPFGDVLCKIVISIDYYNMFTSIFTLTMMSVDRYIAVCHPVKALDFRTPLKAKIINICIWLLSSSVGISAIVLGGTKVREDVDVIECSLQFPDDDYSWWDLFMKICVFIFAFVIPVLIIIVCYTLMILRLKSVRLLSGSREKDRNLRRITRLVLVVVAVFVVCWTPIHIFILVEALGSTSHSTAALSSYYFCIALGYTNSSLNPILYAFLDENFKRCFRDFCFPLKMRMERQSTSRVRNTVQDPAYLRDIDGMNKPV
hMOR, sequence (P35372 whole entry): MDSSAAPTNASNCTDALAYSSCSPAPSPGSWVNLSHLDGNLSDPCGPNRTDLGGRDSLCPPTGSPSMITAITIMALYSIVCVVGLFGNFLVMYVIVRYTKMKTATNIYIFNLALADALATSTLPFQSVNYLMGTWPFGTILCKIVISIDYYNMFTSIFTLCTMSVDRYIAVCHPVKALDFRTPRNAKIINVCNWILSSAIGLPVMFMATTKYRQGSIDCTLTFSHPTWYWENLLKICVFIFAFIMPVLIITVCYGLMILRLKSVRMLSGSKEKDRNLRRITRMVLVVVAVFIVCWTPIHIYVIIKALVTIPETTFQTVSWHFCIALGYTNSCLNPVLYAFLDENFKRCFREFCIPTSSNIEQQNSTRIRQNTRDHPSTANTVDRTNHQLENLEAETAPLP

| SMILES | antagonist activity at hMOR (hMOR; hMOR) | functional behaviour at hMOR (hMOR) | IC50 [1] | functional behaviour at hKOR [1] | functional behaviour at hDOR [2] | binding at hDOR [3] | other results |
| --- | --- | --- | --- | --- | --- | --- | --- |
| CCC1CN2CCc3c([nH]c4cccc(OC)c34)[C@@H]2C[C@@H]1/C(=C\OC)C(=O)OC (stereo partly drawn) [speciogynine] | competitive antagonist activity | – | – | – | – | – | – |
| CC[C@@H]1CN2CC[C@@]3(O)C(=Nc4cccc(OC)c43)[C@@H]2C[C@@H]1/C(=C\OC)C(=O)OC [7-OH, 7-hydroxymitragynine] | – | partial agonists | micromolar range | competitive antagonists | weak antagonist activity | observed | analgesic effects [4]: exhibits analgesic effects |
| C=C[C@H]1CN2CCc3c([nH]c4cccc(OC)c34)[C@@H]2C[C@@H]1/C(=C\OC)C(=O)OC [paynantheine] | competitive antagonist activity | – | – | – | – | – | IC50 (hMOR; hMOR): micromolar range |
| CC[C@@H]1CN2CCc3c([nH]c4cccc(OC)c34)[C@@H]2C[C@@H]1/C(=C\OC)C(=O)OC [Mitragynine] | – | partial agonists | micromolar range | competitive antagonists | weak antagonist activity | negligible | analgesic activity ([5]; administered subcutaneously): inactive; analgesic potency [5, 9]: equivalent to codeine; analgesic activity ([6]; administered subcutaneously): inactive; analgesic potency [6, 9]: equivalent to codeine; analgesic potency [7]: equivalent to codeine; analgesic activity [8]: active analgesic |
| CC[C@@H]1CN2CCc3c([nH]c4cccc(OC)c34)[C@H]2C[C@@H]1/C(=C\OC)C(=O)OC [speciociliatine] | competitive antagonist activity | – | – | – | – | – | – |
